Results on eight compounds are retold here after ChEMBL document CHEMBL1201862, “PubChem BioAssay data set” (2004).

One may read the AC50 as the midpoint of the concentration-response curve, whichever way the signal moves. A word on the IC50: it is the concentration needed to halve the response being measured. For orientation: EC50 means the concentration needed to bring the measured effect to its halfway point. A word on the CC50: it is the concentration giving 50% cytotoxicity.

The source made the active and inactive calls. Bounds are passed on as bounds.

The subject of one assay is HeLa. Nature of the assay: HeLa cell cytotoxicity, dose response, cytotoxicity control for MITF activator project, CellTiter-Glo luminescence, cherry-pick samples (AID 540259). It counts as functional, cell-based. The conditions noted are these: Homo sapiens. A general note: Cellular ATP, detected with luciferase, serves as a proxy for viable cell number.
Another assay addresses Prothrombin (Bos taurus, UniProt P00735). The assay is described as follows: thrombin inhibition, dose response, biochemical, fluorescence polarization, uHTS hits (AID 602369). Type of assay: functional. On the technique in general: Fluorescence polarisation rises when a labelled molecule tumbles more slowly, as on binding a larger partner.
For assay [1], the target named is 26S proteasome non-ATPase regulatory subunit 14 (Homo sapiens, UniProt O00487). Nature of the assay: inhibition of proteasome subunit RPN11 – biochemical, fluorescence polarization, uHTS hits, confirmation (AID 602368). It counts as functional.
Assay [2] addresses 72 kDa type IV collagenase (Homo sapiens, UniProt P08253). Nature of the assay: Dose Response validation of uHTS RPN11 inhibitor hits using a MMP-2 Fluorescence assay. Type of assay: functional.
Another assay deals with Keap1/Nrf2 (Homo sapiens, UniProt Q14145). Nature of the assay: Keap1-Nrf2 protein-protein interaction inhibitors, dose response, biochemical, fluorescence polarization, cherry-picked samples (AID 588683).
Assay [3] deals with T1, Histone-lysine N-methyltransferase NSD2 (Homo sapiens, UniProt O96028).
T1 sequence (O96028 whole entry): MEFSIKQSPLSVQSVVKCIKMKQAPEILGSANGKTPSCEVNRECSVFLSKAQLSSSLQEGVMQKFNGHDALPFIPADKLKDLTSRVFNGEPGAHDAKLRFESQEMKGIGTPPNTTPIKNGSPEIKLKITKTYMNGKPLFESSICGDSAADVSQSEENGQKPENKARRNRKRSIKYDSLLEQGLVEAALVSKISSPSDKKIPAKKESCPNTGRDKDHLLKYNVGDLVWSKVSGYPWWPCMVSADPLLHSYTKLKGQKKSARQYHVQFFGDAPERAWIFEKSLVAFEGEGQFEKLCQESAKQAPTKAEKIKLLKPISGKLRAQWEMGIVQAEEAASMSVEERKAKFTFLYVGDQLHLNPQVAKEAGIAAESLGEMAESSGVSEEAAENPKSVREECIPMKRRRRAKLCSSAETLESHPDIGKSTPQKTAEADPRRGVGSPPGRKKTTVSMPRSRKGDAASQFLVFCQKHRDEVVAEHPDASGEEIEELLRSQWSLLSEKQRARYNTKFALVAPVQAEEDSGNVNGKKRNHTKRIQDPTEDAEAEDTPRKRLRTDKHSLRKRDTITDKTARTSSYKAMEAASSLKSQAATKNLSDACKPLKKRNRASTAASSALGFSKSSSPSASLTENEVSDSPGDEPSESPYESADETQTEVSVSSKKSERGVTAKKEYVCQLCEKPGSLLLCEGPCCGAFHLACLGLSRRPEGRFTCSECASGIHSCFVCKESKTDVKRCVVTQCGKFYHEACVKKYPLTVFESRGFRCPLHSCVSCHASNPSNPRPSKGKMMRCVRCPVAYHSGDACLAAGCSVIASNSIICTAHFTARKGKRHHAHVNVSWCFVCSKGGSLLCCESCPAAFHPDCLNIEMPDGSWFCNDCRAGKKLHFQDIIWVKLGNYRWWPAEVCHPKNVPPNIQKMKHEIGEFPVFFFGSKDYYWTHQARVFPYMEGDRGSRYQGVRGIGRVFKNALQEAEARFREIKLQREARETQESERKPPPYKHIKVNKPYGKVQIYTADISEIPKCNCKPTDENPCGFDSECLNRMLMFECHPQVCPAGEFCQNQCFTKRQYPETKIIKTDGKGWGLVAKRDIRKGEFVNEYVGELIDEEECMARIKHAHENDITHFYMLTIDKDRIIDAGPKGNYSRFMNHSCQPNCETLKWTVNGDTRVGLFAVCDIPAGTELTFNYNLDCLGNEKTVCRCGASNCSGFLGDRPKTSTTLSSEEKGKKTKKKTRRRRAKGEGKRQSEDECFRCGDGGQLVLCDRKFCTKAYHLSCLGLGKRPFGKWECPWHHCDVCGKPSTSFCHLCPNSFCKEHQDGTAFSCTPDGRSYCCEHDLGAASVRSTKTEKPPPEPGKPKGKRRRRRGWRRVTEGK
Type of assay: biochemical.

A short description of assay [4]: Luminescence Cell-Based Dose Confirmation HTS to Identify Inhibitors of Platelet Dense Granule Release. [Related pubchem assays: 1663 (Primary HTS), 1678 (Summary of Project)]. Type of assay: functional.
Assay [5] has as its target Luciferin 4-monooxygenase (Photinus pyralis, UniProt P08659). The assay is described as follows: firefly luciferase enzyme inhibitors, dose response, biochemical, luminescence (AID 1891).
The target in assay [6] is Glucose-6-phosphate 1-dehydrogenase (Homo sapiens, UniProt P11413). The assay is described as follows: human G6PD enzyme inhibitors, dose response, selectivity assay for P. falciparum G6PD inhibitor project, biochemical, fluorescence (AID 504792). It counts as functional.
The subject of another assay is H9c2. Nature of the assay: cells. It counts as functional, cell-based. The following applies: Rattus norvegicus, H9c2, Myocardium.
The nature of assay [7]: Luminescence-based cell-based high throughput dose response assay to identify activators of the DAF-12 from the parasite S. stercoralis (ssDAF-12). Type of assay: functional.
Assay [8] concerns the target T2, Mitochondrial peptide methionine sulfoxide reductase (Bos taurus, UniProt P54149).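 Also: absorbance read-out, biochemical high-throughput dose-response screen for MsrA inhibitors, confirmatory; recombinant bovine MsrA coupled to E. coli TrxB with NADPH and selenocystamine; potency is for inhibitors of MsrA activity on DMSO substrate.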
T2 sequence (P54149 whole entry): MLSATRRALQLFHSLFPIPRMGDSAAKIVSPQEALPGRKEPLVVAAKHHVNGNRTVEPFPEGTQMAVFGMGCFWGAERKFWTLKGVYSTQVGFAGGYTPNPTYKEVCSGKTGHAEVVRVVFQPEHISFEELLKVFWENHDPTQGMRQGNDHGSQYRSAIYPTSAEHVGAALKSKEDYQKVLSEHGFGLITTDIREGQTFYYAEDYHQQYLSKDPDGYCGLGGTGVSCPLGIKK
Type of assay: functional.

The target in assay [9] is T3, Heat shock factor protein 1 (Mus musculus, UniProt P38532).
T3 sequence (P38532 whole entry): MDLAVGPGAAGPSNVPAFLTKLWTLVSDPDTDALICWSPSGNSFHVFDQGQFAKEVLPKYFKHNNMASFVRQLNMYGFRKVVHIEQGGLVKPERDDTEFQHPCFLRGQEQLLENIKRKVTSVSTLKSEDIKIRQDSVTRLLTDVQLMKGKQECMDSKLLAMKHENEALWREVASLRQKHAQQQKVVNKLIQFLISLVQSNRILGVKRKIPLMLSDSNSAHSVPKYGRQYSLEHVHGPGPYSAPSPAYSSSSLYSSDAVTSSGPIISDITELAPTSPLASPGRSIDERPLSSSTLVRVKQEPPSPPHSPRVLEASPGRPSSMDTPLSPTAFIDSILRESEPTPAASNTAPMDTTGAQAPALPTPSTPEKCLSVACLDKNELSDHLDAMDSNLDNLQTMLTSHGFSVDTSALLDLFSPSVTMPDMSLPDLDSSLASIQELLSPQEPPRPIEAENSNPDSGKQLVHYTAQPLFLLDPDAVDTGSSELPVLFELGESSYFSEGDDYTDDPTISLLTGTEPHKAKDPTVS
The assay is described as follows: HSF1 potentiators in luciferase reporter cells, confirmation, cell-based, NIH3T3, luminescence, dose retest (AID 435004).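 Also: stress induced by proteasome inhibitor MG132 added 30 min after compound; luciferase reporter driven by HSF1 response element in NIH3T3 cells; actives raise luminescence as potentiators of the MG132 stress response.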 It counts as functional. (In general: Reporter assays use an easily measured gene product as a stand-in for the process of interest.)

Another assay has as its system Vero. The assay is described as follows: Vero cell cytotoxicity, cytotoxicity control for flavivirus capping enzyme inhibitors (AID 588742). Type of assay: functional. The conditions noted are these: Chlorocebus sabaeus.
Assay [10] deals with T4, Dual specificity protein phosphatase 3 (Homo sapiens, UniProt P51452). Nature of the assay: SAR VHR1 absorbance Assay for In Vitro dose response studies. [Related pubchem assays (depositor defined):AID1654, AID1661, AID1878, AID1992, AID2004].
For assay [11], the target named is T5, Dual specificity protein phosphatase 6 (Rattus norvegicus, UniProt Q64346).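 Also: confirmatory in vitro dose-response testing of MKP-3 inhibition; recombinant His-tagged MKP-3 made in E. coli BL21 with OMFP substrate.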
T5 sequence (Q64346 whole entry): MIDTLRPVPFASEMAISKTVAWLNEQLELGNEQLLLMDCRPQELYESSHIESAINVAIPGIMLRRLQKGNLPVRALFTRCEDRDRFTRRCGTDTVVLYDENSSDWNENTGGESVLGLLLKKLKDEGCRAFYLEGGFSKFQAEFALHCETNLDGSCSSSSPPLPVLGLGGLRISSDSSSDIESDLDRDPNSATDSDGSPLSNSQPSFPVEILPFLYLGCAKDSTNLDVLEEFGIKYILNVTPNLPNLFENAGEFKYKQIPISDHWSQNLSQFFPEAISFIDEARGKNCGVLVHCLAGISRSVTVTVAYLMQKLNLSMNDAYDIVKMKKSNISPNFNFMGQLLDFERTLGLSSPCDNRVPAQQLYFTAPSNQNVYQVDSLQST
Type of assay: functional.

The target of assay [12] is T4, Dual specificity protein phosphatase 3. Nature of the assay: SAR VHR1 Fluorescent Assay for In Vitro dose response studies. [Related pubchem assays (depositor defined):AID1654, AID1661, AID1878, AID1992, AID2004, AID2070, AID2085]. Type of assay: functional.
In assay [13] the target is T6, Tyrosine-protein phosphatase non-receptor type 7 (Homo sapiens, UniProt P35236).
T6 sequence (P35236 whole entry): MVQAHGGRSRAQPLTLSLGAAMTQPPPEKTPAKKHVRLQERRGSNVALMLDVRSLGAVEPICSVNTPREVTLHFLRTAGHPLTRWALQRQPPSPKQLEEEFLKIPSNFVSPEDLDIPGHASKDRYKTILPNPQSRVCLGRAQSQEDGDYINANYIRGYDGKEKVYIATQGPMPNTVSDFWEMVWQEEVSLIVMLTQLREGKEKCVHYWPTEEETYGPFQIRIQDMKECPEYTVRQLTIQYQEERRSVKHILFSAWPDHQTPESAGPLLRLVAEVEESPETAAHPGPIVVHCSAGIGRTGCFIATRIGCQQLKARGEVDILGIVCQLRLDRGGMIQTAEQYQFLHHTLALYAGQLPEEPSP
The assay is described as follows: redox-dependent HePTP inhibition, mechanism study, biochemical, fluorescence (AID 2068). Type of assay: functional.

Assay [14] in a line: A Cell Based Secondary Assay To Explore Cytotoxicity of Compounds that Sensitize Mycobacterium Tuberculosis to Beta-Lactam Antibiotics. Type of assay: functional.
The target of assay [15] is T7, High affinity choline transporter 1 (Homo sapiens, UniProt Q9GZV3).
T7 sequence (Q9GZV3 whole entry): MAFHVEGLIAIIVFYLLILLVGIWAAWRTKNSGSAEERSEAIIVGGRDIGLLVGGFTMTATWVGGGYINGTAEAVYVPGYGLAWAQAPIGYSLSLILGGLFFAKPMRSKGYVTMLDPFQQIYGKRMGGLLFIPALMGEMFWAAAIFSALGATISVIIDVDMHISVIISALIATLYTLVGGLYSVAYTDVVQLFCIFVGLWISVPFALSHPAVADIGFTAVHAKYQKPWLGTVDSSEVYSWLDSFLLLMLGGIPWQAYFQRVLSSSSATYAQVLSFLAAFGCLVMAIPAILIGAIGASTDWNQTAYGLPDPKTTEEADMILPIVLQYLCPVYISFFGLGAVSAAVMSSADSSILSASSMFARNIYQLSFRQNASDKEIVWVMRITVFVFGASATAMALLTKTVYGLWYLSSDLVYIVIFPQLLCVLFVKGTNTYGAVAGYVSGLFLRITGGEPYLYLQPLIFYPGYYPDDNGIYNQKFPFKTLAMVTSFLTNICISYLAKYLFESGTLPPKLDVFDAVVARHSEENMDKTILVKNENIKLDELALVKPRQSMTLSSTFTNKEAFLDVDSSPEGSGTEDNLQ
Nature of the assay: CHT inhibitors, dose response, cell-based, 5-point CRC, membrane potential dye (AID 504840). It counts as functional.

T4 sequence (P51452 whole entry): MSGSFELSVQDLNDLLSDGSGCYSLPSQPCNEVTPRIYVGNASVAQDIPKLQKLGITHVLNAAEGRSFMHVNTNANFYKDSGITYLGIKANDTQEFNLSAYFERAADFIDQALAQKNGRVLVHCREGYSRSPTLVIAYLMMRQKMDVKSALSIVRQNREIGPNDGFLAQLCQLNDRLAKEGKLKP
Keap1/Nrf2, sequence (Q16236 whole entry): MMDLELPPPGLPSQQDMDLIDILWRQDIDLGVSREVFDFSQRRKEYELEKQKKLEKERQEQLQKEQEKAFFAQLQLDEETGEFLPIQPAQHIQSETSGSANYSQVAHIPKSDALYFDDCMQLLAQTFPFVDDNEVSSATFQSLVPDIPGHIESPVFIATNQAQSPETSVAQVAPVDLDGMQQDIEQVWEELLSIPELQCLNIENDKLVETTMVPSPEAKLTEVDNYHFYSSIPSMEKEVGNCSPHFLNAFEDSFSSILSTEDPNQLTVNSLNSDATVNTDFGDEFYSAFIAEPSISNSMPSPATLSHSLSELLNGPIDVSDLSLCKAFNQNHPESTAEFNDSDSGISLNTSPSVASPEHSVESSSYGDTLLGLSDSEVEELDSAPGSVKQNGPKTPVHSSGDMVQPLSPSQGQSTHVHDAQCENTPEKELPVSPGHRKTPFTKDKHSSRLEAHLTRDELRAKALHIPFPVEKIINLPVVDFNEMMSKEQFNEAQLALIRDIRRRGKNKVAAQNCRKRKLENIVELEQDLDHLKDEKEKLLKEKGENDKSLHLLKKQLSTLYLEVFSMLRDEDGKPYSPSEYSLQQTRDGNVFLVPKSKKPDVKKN
Keap1/Nrf2, sequence (Q14145 whole entry): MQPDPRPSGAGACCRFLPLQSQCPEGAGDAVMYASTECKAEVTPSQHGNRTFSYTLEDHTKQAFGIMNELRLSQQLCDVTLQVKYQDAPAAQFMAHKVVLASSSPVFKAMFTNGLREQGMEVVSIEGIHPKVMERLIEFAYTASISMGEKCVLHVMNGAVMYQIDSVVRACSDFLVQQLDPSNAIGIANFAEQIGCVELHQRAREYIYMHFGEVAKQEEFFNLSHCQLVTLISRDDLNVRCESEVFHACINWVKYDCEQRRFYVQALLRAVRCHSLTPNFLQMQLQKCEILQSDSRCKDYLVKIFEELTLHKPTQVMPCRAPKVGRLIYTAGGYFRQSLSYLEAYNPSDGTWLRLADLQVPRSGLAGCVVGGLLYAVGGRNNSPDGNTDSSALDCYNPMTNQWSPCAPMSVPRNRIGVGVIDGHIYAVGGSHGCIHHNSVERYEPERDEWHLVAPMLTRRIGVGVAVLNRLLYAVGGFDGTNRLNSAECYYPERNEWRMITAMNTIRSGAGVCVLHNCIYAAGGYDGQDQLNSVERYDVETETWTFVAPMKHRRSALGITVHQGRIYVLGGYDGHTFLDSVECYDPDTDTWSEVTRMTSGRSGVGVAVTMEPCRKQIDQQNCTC
72 kDa type IV collagenase, sequence (P08253 whole entry): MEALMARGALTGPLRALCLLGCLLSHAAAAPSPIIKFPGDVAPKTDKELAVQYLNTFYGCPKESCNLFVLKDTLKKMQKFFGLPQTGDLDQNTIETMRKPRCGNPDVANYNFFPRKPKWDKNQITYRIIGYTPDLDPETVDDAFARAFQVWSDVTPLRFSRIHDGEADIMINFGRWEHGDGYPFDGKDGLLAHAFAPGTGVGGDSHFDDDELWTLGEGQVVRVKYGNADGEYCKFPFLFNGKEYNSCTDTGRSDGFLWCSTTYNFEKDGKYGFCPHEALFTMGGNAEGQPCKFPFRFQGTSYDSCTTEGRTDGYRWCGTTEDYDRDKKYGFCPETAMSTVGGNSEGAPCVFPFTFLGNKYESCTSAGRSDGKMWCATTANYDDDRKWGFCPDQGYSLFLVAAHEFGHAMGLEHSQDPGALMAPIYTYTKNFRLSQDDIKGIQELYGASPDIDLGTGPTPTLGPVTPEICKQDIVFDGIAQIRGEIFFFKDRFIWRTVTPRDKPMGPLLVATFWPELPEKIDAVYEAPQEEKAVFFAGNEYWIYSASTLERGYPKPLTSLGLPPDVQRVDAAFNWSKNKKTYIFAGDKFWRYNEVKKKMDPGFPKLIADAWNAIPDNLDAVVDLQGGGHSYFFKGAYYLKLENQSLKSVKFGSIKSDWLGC
Glucose-6-phosphate 1-dehydrogenase, sequence (P11413 whole entry): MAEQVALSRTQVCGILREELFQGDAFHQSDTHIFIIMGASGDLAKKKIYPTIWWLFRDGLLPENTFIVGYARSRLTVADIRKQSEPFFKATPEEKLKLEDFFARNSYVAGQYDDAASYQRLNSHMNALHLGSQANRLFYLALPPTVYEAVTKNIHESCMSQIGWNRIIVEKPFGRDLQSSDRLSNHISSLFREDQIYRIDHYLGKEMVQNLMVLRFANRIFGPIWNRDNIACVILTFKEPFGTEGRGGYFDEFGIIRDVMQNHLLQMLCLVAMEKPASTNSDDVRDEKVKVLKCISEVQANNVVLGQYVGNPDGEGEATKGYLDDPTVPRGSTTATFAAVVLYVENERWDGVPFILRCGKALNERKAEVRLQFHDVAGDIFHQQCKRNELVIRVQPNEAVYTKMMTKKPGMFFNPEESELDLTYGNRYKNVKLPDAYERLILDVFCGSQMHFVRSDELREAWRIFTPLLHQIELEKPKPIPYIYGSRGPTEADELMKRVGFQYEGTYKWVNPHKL
Luciferin 4-monooxygenase, sequence (P08659 whole entry): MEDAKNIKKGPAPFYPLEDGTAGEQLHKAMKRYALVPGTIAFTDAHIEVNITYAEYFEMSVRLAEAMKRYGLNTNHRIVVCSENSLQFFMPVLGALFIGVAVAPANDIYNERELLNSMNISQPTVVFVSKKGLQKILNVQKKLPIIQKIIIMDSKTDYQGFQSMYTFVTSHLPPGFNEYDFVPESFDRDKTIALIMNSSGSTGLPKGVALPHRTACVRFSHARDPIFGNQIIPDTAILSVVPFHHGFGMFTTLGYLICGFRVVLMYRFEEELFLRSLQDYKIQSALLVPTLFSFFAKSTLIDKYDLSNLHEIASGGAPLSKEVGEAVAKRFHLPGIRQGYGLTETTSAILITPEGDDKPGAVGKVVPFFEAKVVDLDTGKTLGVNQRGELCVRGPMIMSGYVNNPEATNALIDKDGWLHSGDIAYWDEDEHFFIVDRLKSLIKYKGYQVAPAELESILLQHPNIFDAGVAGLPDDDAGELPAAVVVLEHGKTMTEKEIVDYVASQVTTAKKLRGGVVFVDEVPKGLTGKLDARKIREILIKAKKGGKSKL
26S proteasome non-ATPase regulatory subunit 14, sequence (O00487 whole entry): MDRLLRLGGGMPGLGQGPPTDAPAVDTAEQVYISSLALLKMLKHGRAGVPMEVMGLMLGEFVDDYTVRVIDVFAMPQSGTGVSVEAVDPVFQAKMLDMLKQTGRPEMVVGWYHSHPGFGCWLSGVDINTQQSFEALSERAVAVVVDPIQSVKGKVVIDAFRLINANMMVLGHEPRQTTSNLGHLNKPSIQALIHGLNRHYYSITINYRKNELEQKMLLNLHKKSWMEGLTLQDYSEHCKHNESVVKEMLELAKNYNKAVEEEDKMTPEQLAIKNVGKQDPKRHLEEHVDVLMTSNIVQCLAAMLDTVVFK

With `CC1(C)CC(=O)c2c(O)cc(OCc3ccc(Br)cc3)cc2O1`, the AC50 in the assay on HeLa is 70.4 µM (active).

As for `C/C(C/C(C)=C1/SC(=S)NC1=O)=C1\SC(=S)NC1=O`, the results for the IC50 (at Prothrombin; in assay [1]; in assay [2]) were 87.5 µM (active), 43.6 µM (active) and 0.302 µM (active), respectively. For the same compound, the AC50 is > 52 µM (inactive) at Keap1/Nrf2 and 7.93 µM (active) in [3].

For the compound `CSc1nc(N)n2nc(-c3ccc(Cl)cc3)cc2n1`, the AC50 in the assay on HeLa was 71.6 µM (active). The EC50 in assay [4] was 3.88 µM (active); in [5], 0.464 µM (active).

Regarding `Cc1cc(C)c(C)c(S(=O)(=O)Nc2cccc(S(=O)(=O)Nc3ccccc3C(=O)O)c2)c1C`, the AC50 on Keap1/Nrf2 is > 52 µM (inactive).

Take `N#CC1=C(N)Oc2c(O)cc3ccccc3c2C1c1ccsc1` (stereo not drawn): the IC50 in assay [6] is > 80 µM (inactive); in the assay on H9c2 it was > 79 µM (inactive); in assay [7], > 67.5 µM (inactive); in assay [8] it was 155 µM (inactive). The EC50 in assay [9] was 41.5 µM (active). Further, the CC50 with Vero was > 40 µM (active).

Take `CC(C)NC(=S)c1cn(CCOc2ccccc2)c2ccccc12`: the IC50 in assay [10], in [11], in [12] and in [13] was > 100 µM (inactive) each time.

Turning to `CN1CCN(S(=O)(=O)c2ccc(NC(=O)c3ccc(Br)s3)cc2)CC1`, the CC50 in assay [14] is > 40 µM (active). Besides, the concentration for half-maximal inhibition (IC50) in assay [15] was 16.6 µM (active).

For `CC(C)(C)C(=O)Nc1nc2cc3c(cc2s1)OCO3`, in the assay with HeLa, the AC50 is 51.9 µM (active).
